System: U87MG cells
Assay: Cellular assay, inhibition of 2-HG production in U87MG cells
Assay type: cell-based
Conditions: Homo sapiens, U-87 MG, 48 h
Outline: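 HT1080 or U87MG cells (U87MG kept with 500 ug/mL G418) seeded at 5000 cells/well and treated with compound at 0.2% final DMSO. Incubated 48 h at 37 °C. 2-HG inhibition determined by LC-MS. Viability read by CellTiter-Glo luminescence at 72 h post-dose.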

Structure (SMILES) | IC50 [nM]
N#Cc1ccnc(N2C(=O)CC[C@H]2C(=O)N(c2cccc(F)c2)[C@H](C(=O)NC2CC(F)(F)C2)c2ccccc2)c1 [Compound 138, (S)-1-(4-Cyanopyridin-2-yl)-N—((S)-2-((3,3-difluorocyclobutyl)amino)-2-oxo-1-phenylethyl)-N-(3-fluorophenyl)-5-oxopyrrolidine-2-carboxamide] | < 100
N#Cc1ccnc(N2C(=O)CC[C@H]2C(=O)N(c2cncc(F)c2)[C@H](C(=O)NC2CCC(F)(F)CC2)c2ccccc2Cl)c1 [Compound 193, (S)—N—((S)-1-(2-Chlorophenyl)-2-(4,4-difluorocyclohexylamino)-2-oxoethyl)-1-(4-cyanopyridin-2-yl)-N-(5-fluoropyridin-3-yl)-5-oxopyrrolidine-2-carboxamide] | < 100
N#Cc1ccnc(N2C(=O)CC[C@H]2C(=O)N(c2cccc(S(N)(=O)=O)c2)[C@H](C(=O)NC2CC(F)(F)C2)c2ccccc2Cl)c1 [Compound 84, (S)—N—((S)-1-(2-Chlorophenyl)-2-(3,3-difluorocyclobutylamino)-2-oxoethyl)-1-(4-cyanopyridin-2-yl)-5-oxo-N-(3-sulfamoylphenyl)pyrrolidine-2-carboxamide] | 100 to 500
Cn1ccc2cc(N(C(=O)[C@@H]3CCC(=O)N3c3cc(C#N)ccn3)[C@H](C(=O)NC3CC(F)(F)C3)c3ccccc3Cl)ccc21 [Compound 209, (S)—N—((S)-1-(2-Chlorophenyl)-2-((3,3-difluorocyclobutyl)amino)-2-oxoethyl)-1-(4-cyanopyridin-2-yl)-N-(1-methyl-1H-indol-5-yl)-5-oxopyrrolidine-2-carboxamide] | < 100
CC(C)(O)c1cc(F)cc(N(C(=O)[C@@H]2CCOC(=O)N2c2cc(C#N)ccn2)[C@H](C(=O)NC2CC(F)(F)C2)c2ccccc2Cl)c1 [Compound 146, (S)—N—((S)-1-(2-Chlorophenyl)-2-(3,3-difluorocyclobutylamino)-2-oxoethyl)-3-(4-cyanopyridin-2-yl)-N-(3-fluoro-5-(2-hydroxypropan-2-yl)phenyl)-2-oxo-1,3-oxazinane-4-carboxamide] | < 100
N#Cc1cc(F)cc(N(C(=O)[C@@H]2CCC(=O)N2c2cc(C#N)ccn2)[C@H](C(=O)NC2CC(F)(F)C2)c2ccccc2)c1 [Compound 211, (S)—N-(3-Cyano-5-fluorophenyl)-1-(4-cyanopyridin-2-yl)-N—((S)-2-(3,3-difluorocyclobutyl-amino)-2-oxo-1-phenylethyl)-5-oxopyrrolidine-2-carboxamide] | < 100
N#Cc1ccnc(N2C(=O)CC[C@H]2C(=O)N(c2cccc(F)c2)[C@H](C(=O)NC2CCC(F)(F)CC2)c2ccccc2Cl)n1 [Compound 85, (S)—N—((S)-1-(2-Chlorophenyl)-2-((4,4-difluorocyclohexyl)amino)-2-oxoethyl)-1-(4-cyanopyrimidin-2-yl)-N-(3-fluorophenyl)-5-oxopyrrolidine-2-carboxamide] | < 100
N#Cc1ccnc(N2C(=O)[C@H](O)C[C@H]2C(=O)N(c2cccc(F)c2)[C@H](C(=O)NC2CC(F)(F)C2)c2ccccc2Cl)n1 [Compound 120, (2S,4R)—N—((S)-1-(2-Chlorophenyl)-2-((3,3-difluorocyclobutyl)amino)-2-oxoethyl)-1-(4-cyanopyrimidin-2-yl)-N-(3-fluorophenyl)-4-hydroxy-5-oxopyrrolidine-2-carboxamide] | 100 to 500
N#Cc1ccnc(N2C(=O)OC[C@H]2C(=O)N(c2cccc(F)c2)[C@H](C(=O)NC2CCC(F)(F)CC2)c2ccccc2Cl)c1 [Compound 78, (S)—N—((S)-1-(2-Chlorophenyl)-2-((4,4-difluorocyclohexyl)amino)-2-oxoethyl)-3-(4-cyano-pyridin-2-yl)-N-(3-fluorophenyl)-2-oxooxazolidine-4-carboxamide] | < 100
N#Cc1ccnc(N2C(=O)OCC[C@H]2C(=O)N(c2cc(F)cc(F)c2)[C@H](C(=O)NC2CCC(F)(F)CC2)c2ccccc2Cl)c1 [Compound 139, (S)—N—((S)-1-(2-Chlorophenyl)-2-((4,4-difluorocyclohexyl)amino)-2-oxoethyl)-3-(4-cyanopyridin-2-yl)-N-(3,5-difluorophenyl)-2-oxo-1,3-oxazinane-4-carboxamide] | < 100
N#Cc1ccnc(N2C(=O)OCC[C@H]2C(=O)N(c2cc(F)cc(F)c2)[C@H](C(=O)NC2CC(F)(F)C2)c2ccccc2Cl)n1 [Compound 154, (S)—N—((S)-1-(2-Chlorophenyl)-2-((3,3-difluorocyclobutyl)amino)-2-oxoethyl)-3-(4-cyanopyrimidin-2-yl)-N-(3,5-difluorophenyl)-2-oxo-1,3-oxazinane-4-carboxamide] | < 100
O=C(NC1CC(F)(F)C1)[C@H](c1ccccc1Cl)N(C(=O)[C@@H]1CCC(=O)N1c1nccs1)c1cccc(F)c1 [Compound 14] | 100 to 500
N#Cc1ccnc(N2C(=O)CC[C@H]2C(=O)N(c2cccc(OCCO)c2)[C@H](C(=O)NC2CC(F)(F)C2)c2ccccc2Cl)c1 (single isomer, unassigned) [Compound 130] | < 100
N#Cc1ccnc(N2C(=O)CC[C@H]2C(=O)N(c2cccc(OC(F)(F)F)c2)C(C(=O)NC2CC(F)(F)C2)c2ccccc2Cl)n1 (stereo partly drawn) [Compound 180, (2S)—N-(1-(2-Chlorophenyl)-2-((3,3-difluorocyclobutyl)amino)-2-oxoethyl)-1-(4-cyanopyrimidin-2-yl)-5-oxo-N-(3-(trifluoromethoxy)phenyl)pyrrolidine-2-carboxamide] | < 100
O=C(NC1CC(F)(F)C1)[C@H](c1ccccc1Cl)N(C(=O)[C@@H]1COC(=O)N1c1ncccn1)c1cccc(F)c1 [Compound 9, (S)—N—((S)-1-(2-chloro-phenyl)-2-(3,3-difluorocyclo-butylamino)-2-oxoethyl)-N-(3-fluorophenyl)-2-oxo-3-(pyrimidin-2-yl)oxazolidine-4-carboxamide] | < 100
N#Cc1cccnc1N1C(=O)CC[C@H]1C(=O)N(c1cccc(F)c1)[C@H](C(=O)NC1CC(F)(F)C1)c1ccccc1Cl [Compound 69, (S)—N—((S)-1-(2-Chlorophenyl)-2-((3,3-difluorocyclobutyl)amino)-2-oxoethyl)-1-(3-cyanopyridin-2-yl)-N-(3-fluorophenyl)-5-oxopyrrolidine-2-carboxamide] | < 100
CC(C)(C)OC(=O)N1CC(=O)N(c2cc(C#N)ccn2)[C@H](C(=O)N(c2cccc(F)c2)[C@H](C(=O)NC2CC(F)(F)C2)c2ccccc2Cl)C1 [Compound 89, (3S)-tert-Butyl 3-((1-(2-chlorophenyl)-2-((3,3-difluorocyclobutyl)amino)-2-oxoethyl)(3-fluorophenyl)carbamoyl)-4-(4-cyanopyridin-2-yl)-5-oxopiperazine-1-carboxylate] | < 100
N#Cc1ccnc(N2C(=O)[C@@H](O)C[C@H]2C(=O)N(c2cccc(F)c2)[C@H](C(=O)NC2CCC(F)(F)CC2)c2ccccc2Cl)c1 [Compound 172, (2S,4S)—N—((S)-1-(2-Chlorophenyl)-2-((4,4-difluorocyclohexyl)amino)-2-oxoethyl)-1-(4-cyano-pyridin-2-yl)-N-(3-fluorophenyl)-4-hydroxy-5-oxopyrrolidine-2-carboxamide] | < 100
N#Cc1ccnc(N2C(=O)CC[C@H]2C(=O)N(c2cc(F)cc(F)c2)[C@H](C(=O)NC2CC(F)(F)C2)c2ccc(Cl)cc2Cl)c1 [Compound 196, (S)-1-(4-Cyanopyridin-2-yl)-N—((S)-1-(2,4-dichlorophenyl)-2-((3,3-difluorocyclobutyl)-amino)-2-oxoethyl)-N-(3,5-difluorophenyl)-5-oxopyrrolidine-2-carboxamide] | < 100
N#Cc1ccnc(N2C(=O)CC[C@H]2C(=O)N(c2cccc(F)c2)[C@H](C(=O)NC2CC(F)(F)C2)c2ccccc2Cl)n1 [Compound 68, (S)—N—((S)-1-(2-Chlorophenyl)-2-((3,3-difluorocyclobutyl)amino)-2-oxoethyl)-1-(4-cyanopyrimidin-2-yl)-N-(3-fluorophenyl)-5-oxopyrrolidine-2-carboxamide] | < 100
N#Cc1ccnc(N2C(=O)CC[C@H]2C(=O)N(c2ccc3[nH]ccc3c2)[C@H](C(=O)NC2CC(F)(F)C2)c2ccccc2Cl)c1 [Compound 206, (S)—N—((S)-1-(2-Chlorophenyl)-2-((3,3-difluorocyclobutyl)amino)-2-oxoethyl)-1-(4-cyanopyridin-2-yl)-N-(1H-indol-5-yl)-5-oxopyrrolidine-2-carboxamide] | < 100
N#Cc1ccnc(N2C(=O)OCC[C@H]2C(=O)N(c2cncc(F)c2)[C@H](C(=O)NC2CCC(F)(F)CC2)c2ccccc2Cl)c1 [Compound 137, (S)—N—((S)-1-(2-Chlorophenyl)-2-((4,4-difluorocyclohexyl)amino)-2-oxoethyl)-3-(4-cyano-pyridin-2-yl)-N-(5-fluoropyridin-3-yl)-2-oxo-1,3-oxazinane-4-carboxamide] | < 100
N#Cc1ccnc(N2C(=O)CC[C@H]2C(=O)N(c2cc(F)cc(F)c2)[C@H](C(=O)NC2CC(F)(F)C2)c2ccccc2Cl)c1 [Compound 71, (S)—N—((S)-1-(2-Chlorophenyl)-2-((3,3-difluorocyclobutyl)amino)-2-oxoethyl)-1-(4-cyanopyridin-2-yl)-N-(3,5-difluorophenyl)-5-oxopyrrolidine-2-carboxamide] | < 100
N#Cc1ccnc(N2C(=O)CC[C@H]2C(=O)N(c2ccccc2F)[C@H](C(=O)NC2CC(F)(F)C2)c2ccccc2Cl)c1 [Compound 187, (S)—N—((S)-1-(2-Chlorophenyl)-2-((3,3-difluorocyclobutyl)amino)-2-oxoethyl)-1-(4-cyanopyridin-2-yl)-N-(2-fluorophenyl)-5-oxopyrrolidine-2-carboxamide] | < 100
N#Cc1cc(F)cc(N(C(=O)[C@@H]2CCC(=O)N2c2nccc(C#N)n2)[C@H](C(=O)NC2CCC(F)(F)CC2)c2ccccc2Cl)c1 [Compound 185, (S)—N—((S)-1-(2-Chlorophenyl)-2-((4,4-difluorocyclohexyl)amino)-2-oxoethyl)-N-(3-cyano-5-fluorophenyl)-1-(4-cyanopyrimidin-2-yl)-5-oxopyrrolidine-2-carboxamide] | < 100
